Source: US9782424B2, “Synergistic combination comprising avermectins and a NSAID for tumor inhibition” (Ectin Research AB, priority 2011, dated 2017)

Legend:
[1] = system: colorectal cell line (Colo205); test: XTT-assay proliferation rate, colorectal cell line Colo205; format: cell-based, human; settings: for Proliferation rate compared to medium control: Colo205 (Table 4); for Proliferation rate in per cent compared to untreated medium control: Colo205
Description: Commercially available human tumor cell lines were purchased from […], Borás, Sweden). Cell lines from urinary bladder (UM-UC-3, #CRL-1749), colorectal carcinoma (Colo205, #CCL-222 and HT29, #HTB-38), prostate carcinoma (LNCaP, #CRL-1740) and breast carcinoma (ZR-75-1, #CRL-1500) were purchased and stored in liquid nitrogen. […] Tumor cell lines were handled aseptically using a laminar airflow (LAF) bench (Holten 2448, Ninolab, Sweden) and stored in a liquid nitrogen tank and were initiated in culture as previously described (Falk P. Experimental models of the peritoneal environment: Effects of TGF-beta and Hyaluronan. Göteborg: University of Gothenburg; 2008). Briefly, ampoules of frozen cells were thawed by submerging into a 37° C. water bath for 45 s. […] Culture media was changed two-three times a week. Culture flasks (Cell+, Sarstedt, Nümbrecht, Germany) and culture plates (Falcon/BD, Franklin Lakes, N.J., USA) were used for experimental set-ups. […] Described culture techniques and equipment have been used extensively in the laboratory The proliferation rates of the different human tumor cell lines were studied using a method based on the conversion of a sodium salt (XTT-assay, Sigma) into a stable orange color that could be analyzed in a spectrophotometer. The color change is proportional to the mitochondrial dehydrogenase activity resulting in an effective technique for measuring cell toxicity (Roehm N W, Rodgers […], Glasebrook A L. An improved colorimetric assay for cell proliferation and viability utilizing the tetrazolium salt XTT. […] The color change was measured using a 96-well plate reader with software to calculate the absorbance at 450 nm (V-max/Softmax Pro, Molecular Devices, USA). […] RPMI 1640 and EMEM without phenol red was used during the experiments to reduce the red color background signal in the XTT-assay. […] Untreated wells including culture medium only served as untreated controls. The XTT-assay substrate was added and after gentle agitation using a micro plate shaker, absorbencies at 450 and 650 nm were measured. Levels from medium were subtracted and compared with control wells, using culture medium only.

[2] = system: colorectal cell line (HT29); test: XTT-assay proliferation rate, colorectal cell line HT29; format: cell-based, human
Protocol: Commercially available human tumor cell lines were purchased from ATCC (ATCC/LGC-standards, Borás, Sweden). Cell lines from urinary bladder (UM-UC-3, #CRL-1749), colorectal carcinoma (Colo205, #CCL-222 and HT29, #HTB-38), prostate carcinoma (LNCaP, #CRL-1740) and breast carcinoma (ZR-75-1, #CRL-1500) were purchased and stored in liquid nitrogen. Cells were cultured in Roswell Park Memorial Institute media (RPMI-1640) or minimum essential medium with Earl's salts (EMEM) supplemented with 10% Foetal calf serum (FCS, Sigma) and cultured using a 37° C. cell culture incubator (Forma Scientific, NinoLab, Kungsbacka, Sweden) with 5% CO2 humidified atmosphere. Tumor cell lines were handled aseptically using a laminar airflow (LAF) bench (Holten 2448, Ninolab, Sweden) and stored in a liquid nitrogen tank and were initiated in culture as previously described (Falk P. Experimental models of the peritoneal environment: Effects of TGF-beta and Hyaluronan. Göteborg: University of Gothenburg; 2008). Briefly, ampoules of frozen cells were thawed by submerging into a 37° C. water bath for 45 s. Cells were resuspended in 10 ml of preheated RPMI-1640 with 10% FCS and centrifuged in 260 g for 10 min. With supernatant discarded, cell pellets were further resuspended with 5 ml complete medium into 25 cm^2 cell culture flasks (Cell+, Sarstedt, Nümbrecht, Germany). Tumor cells were cultured until sub-confluence and further sub-cultured with Trypsin (0.5%), EDTA (0.2%) solution (T4174, TE-10x, Sigma) in sterile sodium chloride. Culture media was changed two-three times a week. Culture flasks (Cell+, Sarstedt, Nümbrecht, Germany) and culture plates (Falcon/BD, Franklin Lakes, N.J., USA) were used for experimental set-ups. Cells were regularly monitored using an inverted microscope connected to a digital photo equipment (Axiovert 25 and Axiovision, Zeiss, Carl Zeiss AG, Germany) (FIG. 1). Described culture techniques and equipment have been used extensively in the laboratory
The proliferation rates of the different human tumor cell lines were studied using a method based on the conversion of a sodium salt (XTT-assay, Sigma) into a stable orange color that could be analyzed in a spectrophotometer. The color change is proportional to the mitochondrial dehydrogenase activity resulting in an effective technique for measuring cell toxicity (Roehm N W, Rodgers G H, Hatfield S M, Glasebrook A L. An improved colorimetric assay for cell proliferation and viability utilizing the tetrazolium salt XTT. J Immunol Methods 1991;142(2):257-65) or cell proliferation. The color change was measured using a 96-well plate reader with software to calculate the absorbance at 450 nm (V-max/Softmax Pro, Molecular Devices, USA). Cells were cultured until approx 50% confluence and then pre-incubated for 24 h with RPMI-1640 or EMEM containing 1% FCS only. RPMI 1640 and EMEM without phenol red was used during the experiments to reduce the red color background signal in the XTT-assay.
Prior to the experimental start all cells were gently washed once with RPMI 1640 and EMEM with 1% FCS. Increasing concentrations of substance ivermectin was added with an 8-channel pipette (Titertek, Kem-En-Tec, Taastrup, Denmark) together with sterile pipette tips (Molecular Bioproducts, San Diego, Calif., USA). Cell cultures including active substances were incubated for 24 hours (and 96 hours). Untreated wells including culture medium only served as untreated controls. The XTT-assay substrate was added and after gentle agitation using a micro plate shaker, absorbencies at 450 and 650 nm were measured. Levels from medium were subtracted and compared with control wells, using culture medium only.

Substance: 22,23-dihydroavermectin B1a+22,23-dihydroavermectin B1b [ivermectin]
- Proliferation rate compared to medium control ([1]; IVM 1 μmol/L alone): 101.3 ± 4.9%
- Proliferation rate compared to medium control ([1]; IVM 10 μmol/L alone): 97.7 ± 8.5%
- Proliferation rate compared to medium control ([1]; IVM 100 μmol/L alone): 69.4 ± 11.5%
- Proliferation rate in per cent compared to untreated medium control ([1]; ivermectin 10e-9 mol/L): 97 ± 14%
- Proliferation rate in per cent compared to untreated medium control ([1]; ivermectin 10e-8 mol/L): 104 ± 8%
- Proliferation rate in per cent compared to untreated medium control ([1]; ivermectin 10e-7 mol/L): 69±9%
- Proliferation rate in per cent compared to untreated medium control ([1]; ivermectin 10e-6 mol/L): 42±12%
- Proliferation rate in per cent compared to untreated medium control ([1]; ivermectin 10e-5 mol/L): 6±1%
- Proliferation rate in per cent compared to untreated medium control ([1]; ivermectin 10e-4 mol/L): 4±1%
- Proliferation rate in per cent compared to untreated medium control ([2]; ivermectin 10e-9 mol/L): 109 ± 14%
- Proliferation rate in per cent compared to untreated medium control ([2]; ivermectin 10e-8 mol/L): 112 ± 12%
- Proliferation rate in per cent compared to untreated medium control ([2]; ivermectin 10e-7 mol/L): 106 ± 9%
- Proliferation rate in per cent compared to untreated medium control ([2]; ivermectin 10e-6 mol/L): 91 ± 5%
- Effect on proliferation rate ([2]; ivermectin 100 μM): decreased proliferation rate
- Proliferation rate in per cent compared to untreated medium control ([2]; ivermectin 10e-5 mol/L): 85±11%
- Proliferation rate in per cent compared to untreated medium control ([2]; ivermectin 10e-4 mol/L): 5±1%
